Measurements as given in patent US6610717B2, “Dihydropyridine derivatives” (Ajinomoto Co., Inc., priority 1999, dated 2003).

What was measured:
N-type calcium channel [1] = target: T1, N-type calcium channel (Homo sapiens, UniProt Q00975); assay: Antagonistic activity on N-type calcium channel (fluorescence dye method), IMR-32 cells, changed procedure; type: cell-based; conditions: Table 3, 60 mM KCl stimulation, calculated from the inhibition rates, read-out: N-type inhibition pIC50 (converted)
T1 construct: Human neuroblastoma cells IMR-32 were obtained from ATCC; host or cells: IMR-32 human neuroblastoma cells differentiated with dibutyl cAMP and bromodeoxyuridine
T1 sequence (Q00975 whole entry): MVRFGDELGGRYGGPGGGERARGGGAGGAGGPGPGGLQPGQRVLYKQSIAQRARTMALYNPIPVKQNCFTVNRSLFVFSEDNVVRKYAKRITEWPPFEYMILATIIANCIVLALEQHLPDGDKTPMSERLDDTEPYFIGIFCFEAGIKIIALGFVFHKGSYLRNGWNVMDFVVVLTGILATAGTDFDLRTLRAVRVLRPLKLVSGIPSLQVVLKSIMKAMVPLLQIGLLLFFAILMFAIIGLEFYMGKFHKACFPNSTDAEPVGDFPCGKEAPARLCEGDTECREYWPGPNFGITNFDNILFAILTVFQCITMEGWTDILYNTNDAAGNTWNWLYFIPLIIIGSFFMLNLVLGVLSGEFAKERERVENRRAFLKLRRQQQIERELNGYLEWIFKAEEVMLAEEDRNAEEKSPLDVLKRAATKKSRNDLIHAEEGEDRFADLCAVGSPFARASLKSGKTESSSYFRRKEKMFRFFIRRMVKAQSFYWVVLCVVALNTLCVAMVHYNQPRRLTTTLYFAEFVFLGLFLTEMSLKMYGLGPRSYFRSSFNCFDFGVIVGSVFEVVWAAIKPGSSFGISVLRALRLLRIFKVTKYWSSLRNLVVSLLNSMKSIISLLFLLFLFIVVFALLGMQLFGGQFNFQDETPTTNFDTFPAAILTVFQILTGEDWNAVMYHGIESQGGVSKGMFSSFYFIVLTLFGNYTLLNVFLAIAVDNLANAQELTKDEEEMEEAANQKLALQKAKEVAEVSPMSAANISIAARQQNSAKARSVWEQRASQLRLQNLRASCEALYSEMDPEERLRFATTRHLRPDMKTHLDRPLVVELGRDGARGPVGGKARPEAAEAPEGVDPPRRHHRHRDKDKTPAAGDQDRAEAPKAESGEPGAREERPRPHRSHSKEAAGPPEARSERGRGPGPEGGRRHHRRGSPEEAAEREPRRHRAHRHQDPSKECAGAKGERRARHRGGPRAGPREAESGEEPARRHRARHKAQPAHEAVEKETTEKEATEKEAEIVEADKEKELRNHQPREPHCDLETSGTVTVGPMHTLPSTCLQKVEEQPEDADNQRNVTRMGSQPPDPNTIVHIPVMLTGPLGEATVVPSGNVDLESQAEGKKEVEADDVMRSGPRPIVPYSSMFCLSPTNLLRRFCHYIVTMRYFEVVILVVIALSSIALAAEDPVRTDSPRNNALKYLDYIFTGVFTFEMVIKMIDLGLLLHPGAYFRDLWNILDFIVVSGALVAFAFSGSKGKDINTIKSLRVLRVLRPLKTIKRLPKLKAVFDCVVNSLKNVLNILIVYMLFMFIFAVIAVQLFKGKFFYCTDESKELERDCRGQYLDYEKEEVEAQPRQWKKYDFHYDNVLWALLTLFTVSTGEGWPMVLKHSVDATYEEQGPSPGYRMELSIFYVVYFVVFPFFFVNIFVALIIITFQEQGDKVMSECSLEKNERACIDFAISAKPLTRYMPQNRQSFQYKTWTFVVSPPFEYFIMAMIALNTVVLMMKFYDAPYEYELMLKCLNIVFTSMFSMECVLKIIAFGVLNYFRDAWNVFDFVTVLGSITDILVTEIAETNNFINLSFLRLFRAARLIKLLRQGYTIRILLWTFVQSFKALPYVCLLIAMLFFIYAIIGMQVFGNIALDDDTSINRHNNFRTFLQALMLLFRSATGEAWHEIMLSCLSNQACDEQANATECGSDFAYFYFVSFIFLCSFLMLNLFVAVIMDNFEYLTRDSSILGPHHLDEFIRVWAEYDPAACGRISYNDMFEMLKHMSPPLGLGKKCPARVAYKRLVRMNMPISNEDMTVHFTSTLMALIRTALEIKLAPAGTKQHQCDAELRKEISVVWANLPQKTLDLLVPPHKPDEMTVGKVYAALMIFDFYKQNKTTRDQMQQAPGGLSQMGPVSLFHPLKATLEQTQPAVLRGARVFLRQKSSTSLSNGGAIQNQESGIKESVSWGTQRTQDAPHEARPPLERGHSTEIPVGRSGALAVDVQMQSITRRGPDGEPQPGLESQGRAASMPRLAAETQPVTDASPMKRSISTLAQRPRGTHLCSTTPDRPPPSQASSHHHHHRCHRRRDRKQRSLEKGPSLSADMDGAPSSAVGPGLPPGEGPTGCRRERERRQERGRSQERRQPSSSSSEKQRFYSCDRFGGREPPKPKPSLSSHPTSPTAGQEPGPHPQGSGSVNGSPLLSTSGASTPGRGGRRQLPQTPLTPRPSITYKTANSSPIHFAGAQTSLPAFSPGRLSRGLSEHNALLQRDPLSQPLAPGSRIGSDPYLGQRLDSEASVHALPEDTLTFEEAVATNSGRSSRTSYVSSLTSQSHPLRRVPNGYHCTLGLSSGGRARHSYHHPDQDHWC
T1 sequence (P54289 25-956 partner limits assumed): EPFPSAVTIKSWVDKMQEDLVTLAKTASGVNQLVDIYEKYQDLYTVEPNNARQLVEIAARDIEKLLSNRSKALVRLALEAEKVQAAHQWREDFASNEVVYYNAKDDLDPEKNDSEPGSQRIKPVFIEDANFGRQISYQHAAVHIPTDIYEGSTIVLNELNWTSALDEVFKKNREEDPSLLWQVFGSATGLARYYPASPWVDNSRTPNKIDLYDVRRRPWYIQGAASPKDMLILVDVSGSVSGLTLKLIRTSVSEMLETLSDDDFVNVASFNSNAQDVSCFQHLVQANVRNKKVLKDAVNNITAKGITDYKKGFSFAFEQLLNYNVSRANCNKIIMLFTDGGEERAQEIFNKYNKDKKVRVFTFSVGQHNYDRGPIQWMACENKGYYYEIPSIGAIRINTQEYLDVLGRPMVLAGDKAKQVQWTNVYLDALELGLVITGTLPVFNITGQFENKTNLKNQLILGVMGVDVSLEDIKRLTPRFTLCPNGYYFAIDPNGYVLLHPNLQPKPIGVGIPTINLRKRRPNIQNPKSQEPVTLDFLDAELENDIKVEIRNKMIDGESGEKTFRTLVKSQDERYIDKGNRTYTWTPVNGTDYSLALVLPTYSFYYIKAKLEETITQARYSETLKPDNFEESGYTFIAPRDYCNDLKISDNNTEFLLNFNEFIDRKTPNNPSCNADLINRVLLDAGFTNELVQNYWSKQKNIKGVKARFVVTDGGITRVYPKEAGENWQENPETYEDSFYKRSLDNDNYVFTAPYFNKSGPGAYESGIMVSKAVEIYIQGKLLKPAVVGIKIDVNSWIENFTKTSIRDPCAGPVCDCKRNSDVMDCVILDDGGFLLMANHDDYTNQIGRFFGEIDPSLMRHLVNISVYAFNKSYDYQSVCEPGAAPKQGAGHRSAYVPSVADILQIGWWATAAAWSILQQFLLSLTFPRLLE
T1 sequence (P54289 957-1103 partner limits assumed): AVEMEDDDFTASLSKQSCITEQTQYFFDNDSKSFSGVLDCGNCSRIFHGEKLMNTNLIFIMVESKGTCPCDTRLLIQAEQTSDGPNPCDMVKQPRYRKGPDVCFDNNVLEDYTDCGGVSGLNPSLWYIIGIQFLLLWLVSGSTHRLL
T1 sequence (P54284 whole entry partner): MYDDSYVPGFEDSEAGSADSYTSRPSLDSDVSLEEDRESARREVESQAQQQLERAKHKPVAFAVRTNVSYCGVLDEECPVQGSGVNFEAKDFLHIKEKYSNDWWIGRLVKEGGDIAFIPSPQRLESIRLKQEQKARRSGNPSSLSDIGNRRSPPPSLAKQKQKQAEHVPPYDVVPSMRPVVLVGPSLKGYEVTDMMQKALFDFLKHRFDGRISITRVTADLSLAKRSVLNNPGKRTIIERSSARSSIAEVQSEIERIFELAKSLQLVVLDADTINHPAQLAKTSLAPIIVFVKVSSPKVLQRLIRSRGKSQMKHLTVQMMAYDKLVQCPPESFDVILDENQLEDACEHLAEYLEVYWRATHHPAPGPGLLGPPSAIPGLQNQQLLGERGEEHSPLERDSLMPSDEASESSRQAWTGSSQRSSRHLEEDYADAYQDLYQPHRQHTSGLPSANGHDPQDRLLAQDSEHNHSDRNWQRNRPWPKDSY
Method: (§1) Human neuroblastoma cells IMR-32 were obtained from ATCC (American Type Culture Collection). The medium used was a Phenol Red-free Eagle minimum essential medium (GIBCO) containing earle's salts supplement, 2 mM of L-glutamine (GIBCO), 1 mM of sodium pyruvate (pH 6.5) (GIBCO), antibiotic/antimicotic mixture (GIBCO) and 10% fetal calf serum (Cell Culture Technologies). 3 ml of 1×10^5/ml IMR-32 cells were spread on a glass dish (Iwaki Glass Co., Ltd.) having a diameter of 35 mm which was treated with poly-D-lysin (SIGMA) and collagen (COLLAGEN VITROGEN 100, Collagen Colo.). After the culture for 2 days, 1 mM (final concentration) of dibutyl cAMP and 2.5 μM of bromodeoxyuridine (SIGMA) were added. After the culture for additional 10 to 14 days, the cells were subjected to the activity determination. The medium for IMR-32 cells thus prepared was replaced with 1 ml of Phenol Red-free Eagle minimum essential medium (GIBCO) containing 1 ml of 10 μM fura-2/AM (Dojin Kagaku, Co.) and earle's salts supplement, and the incubation was conducted at 25° C. for 1 hour.
Then the medium was replaced with Phenol Red-free Eagle minimum essential medium (GIBCO) containing earle's salts supplement, from which fura-2/AM had been removed. After the incubation at 37° C. for 1 hour, the medium was replaced with a recording medium (20 mM of HEPES-KOH, 115 mM of NaCl, 5.4 mM of KCl, 0.8 mM of MgCl2, 1.8 mM of CaCl2 and 13.8 mM of D-glucose). Antagonistic activity on N-type calcium channel was determined and analyzed by using a fluorescence microscope (Nikon Corporation) and an image analysis device ARGUS 50 (Hamamatsu Photonics). In particular, a recording medium (20 mM of HEPES-KOH, 115 mM of NaCl, 5.4 mM of KCl, 0.8 mM of MgCl2, 1.8 mM of CaCl2 and 13.8 mM of D-glucose) containing 1 μM of Nifedipine was given to the cells by reflux by a Y-tube method. Then a stimulating agent containing 60 mM of potassium chloride was rapidly given by the Y-tube method. Thereafter stimulating agents containing 60 mM of potassium chloride and 0.1, 1 or 10 μM of test compound were successively rapidly given by the Y-tube method to determine the antagonistic activity on the channel. Finally, a stimulating agent containing 60 mM of potassium chloride and 1 μM of omega conotoxin GVIA (Peptide institute, inc.) was rapidly given by the Y-tube method to realize a condition of 100% inhibition of N-type calcium channel.
The same procedure as that of the above-described tests was repeated except for the following changes: 60 mM of potassium chloride-containing stimulating agent was rapidly given by the Y-tube method while the calcium concentration change in the cells was examined in terms of N-type calcium channel activity. […] A change in calcium concentration in the cells was determined.

N-type calcium channel [2] = target: T1, N-type calcium channel; assay: Antagonistic activity on N-type calcium channel (fluorescence dye method), IMR-32 cells, in presence of 1 μM Nifedipine; type: cell-based; conditions: Table 2, 60 mM KCl stimulation, fura-2, read-out: N-type inhibition pIC50 (converted)
Method: as §1, with “The medium for IMR-32 cells thus prepared was replaced with 1 ml of Phenol Red-free Eagle minimum essential medium (GIBCO) containing 1 ml of 10 μM fura-2/AM (Dojin Kagaku, Co.) and earle's salts supplement, and the incubation was conducted at 25° C. for 1 hour.” left out
Then the medium was replaced with Phenol Red-free Eagle minimum essential medium (GIBCO) containing earle's salts supplement, from which fura-2/AM had been removed. […] Antagonistic activity on N-type calcium channel was determined and analyzed by using a fluorescence microscope (Nikon Corporation) and an image analysis device ARGUS 50 (Hamamatsu Photonics). […]

IC50 (N-type calcium channel [1]) | IC50 (N-type calcium channel [2]) | Structure (SMILES)
2000 nM |  | COCC1=C(C(=O)OC)C(c2cccc(Cl)c2)C(C(=O)NCCC(c2ccccc2)c2ccccc2)=C(COCCN)N1 (stereo not drawn) [Example 11, Methyl 6-(2-aminoethoxy)methyl-4-(3-chlorophenyl)-5-(3,3-diphenylpropylcarbamoyl)-2-methoxymethyl-1,4-dihydropyridine-3-carboxylate]
2510 nM | 2000 nM | CC1=C(C(=O)O)C(c2cccc(Cl)c2)C(C(=O)NC/C=C/c2ccccc2)=C(COCCc2ccccc2)N1 (stereo not drawn) [Example 3, 4-(3-chlorophenyl)-2-methyl-6-(2-phenylethoxymethyl)-5-(3-phenyl-2-propene-1-ylcarbamoyl)-1,4-dihydro-pyridine-3-carboxylic acid]
794 nM | 398 nM | CC1=C(C(=O)O)C(c2cccc(Cl)c2)C(C(=O)NC/C=C/c2ccccc2)=C(COCCC2CCCCC2)N1 (stereo not drawn) [Example 4, 4-(3-chlorophenyl)-6-(2-cyclohexylethoxymethyl)-2-methyl-5-(3-phenyl-2-propene-1-ylcarbamoyl)-1,4-dihydropyridine-3-carboxylic acid]
2510 nM |  | CC1=C(C(=O)O)C(c2cccc(Cl)c2)C(C(=O)NCCC(c2ccccc2)c2ccccc2)=C(COCCc2ccccn2)N1 (stereo not drawn) [Example 6, 4-(3-chlorophenyl)-5-(3,3-diphenylpropylcarbamoyl)-2-methyl-6-(2-(pyridine-2-yl)ethoxy)methyl-1,4-dihydropyridine-3-carboxylic acid]
